Structures can show the parent of a compound that is named as a salt. Where a SMILES comes first, the peptide text is derived from it. The star is where a group is joined. pNA = O=[N+]([O-])c1ccc(N*)cc1; Tos = Cc1ccc(S(=O)(=O)*)cc1; Cbz = O=C(OCc1ccccc1)*; Bz = O=C(c1ccccc1)*
T1: bovine trypsin (Bos taurus, UniProt P00760)
T1 construct: 1.8 NF/ml of bovine trypsin
T1 sequence (P00760 24-246): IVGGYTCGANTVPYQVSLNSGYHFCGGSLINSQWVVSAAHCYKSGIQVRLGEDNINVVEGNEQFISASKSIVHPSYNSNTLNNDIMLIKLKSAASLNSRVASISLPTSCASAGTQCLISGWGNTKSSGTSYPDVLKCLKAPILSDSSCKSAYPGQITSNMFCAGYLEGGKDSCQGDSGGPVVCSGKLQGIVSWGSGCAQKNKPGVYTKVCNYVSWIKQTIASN


How the values were obtained:
[1] = target: T2, human thrombin (Homo sapiens, UniProt P00734); test: Enzymatic release of split product NH2-R2 from chromogenic/fluorogenic substrate by human thrombin; format: biochemical; conditions: in words, from Table 1
T2 construct: 0.56 NIH/ml of human thrombin
Procedure: The degree of the enzymatic hydrolysis of the substrate, which is proportional to the quantity of p-Nitroaniline formed, can be easily determined by spectrophotometric measurement at 405 nm. […] The conditions are practically the same for the other substrates carrying a p-nitroanilino group as a chromogenic group. The spectrophotometric measurement was therefore, carried out in all cases at 405 nm.
The mixture was pre-incubated for 2 minutes at 37° C. […] The increase in the absorption was measured spectrophotometrically at 405 nm and continuously followed by means of a recording device. The measuring results listed in Tables 1 and 2 were all obtained under the test conditions defined above. The quantity of the formed split product NH2 --R^2 is a measure for the susceptibility of the substrate to the enzymes. […] For determining the quantity (nanomole) of p-napthylamine and 4-methoxy-β-naphthylamine (substrates XII to XV, XVIII and XIX), respectively, formed per minute the samples were irradiated in a fluorescence photometer with light having a wave length of 350 nm. The quantity of the formed split product was determined by measuring the intensity of the light emitted at 420 nm.

[2] = target: T3, human plasmin (Homo sapiens, UniProt P00747); test: Km and vmax from Lineweaver-Burk diagram, human plasmin; format: biochemical; conditions: value marked CU, ionic strength 0.15, pH 8.4, 37° C
T3 construct: 0.4 CU/ml of human plasmin
Procedure: (§1) As is evident from equation (2) constants Km and k3 determine the activity of the enzyme substrate for a given enzyme. For determining these constants the following procedure is followed:
(§2) The enzyme and the substrate are mixed in a buffer solution, and the reaction is followed spectrophotometrically for 2 to 30 minutes. The concentration of substrate [S] is varied, whereas the enzyme concentration [E] is kept constant. If the extinction (OD) (= optical density) is plotted in a co-ordinate system as a function of time, a curve is obtained the tangent of which (difference in extinction per minute, Δ OD/minute, from which the quantity in μmoles of pNA/min (v) can be calculated) at time zero corresponds to the ideal course of the hydrolysis. By means of this tangent the initial rate of the hydrolysis can be determined.
(§3) If 1/v is plotted against 1/[S], a Lineweaver-Burk diagram (cf. "Kurzes Lehrbuch der Biochemie" by P. KARSON, Georg Thieme-Verlag, Stuttgart, 1967., p. 70) is obtained from which vmax and Km can be determined graphically. [formula] were determined with N^α-Cbo-Gly-Pro-Arg-pNA.HCl (substrate according to Example 1) for human thrombin, human plasmin and bovine trypsin. Km and vmax were determined for the enzymes by means of the LineweaverBurk equation (the Lineweaver-Burk diagram is shown in FIG. 7 of the drawings attached to the specification). […]

[3] = target: T1, bovine trypsin; test: Km and vmax from Lineweaver-Burk diagram, bovine trypsin; format: biochemical; conditions: value marked NF, ionic strength 0.15, pH 8.4, 37° C
Procedure: as §1, §2, §3

[4] = target: T2, human thrombin; test: Km and vmax from Lineweaver-Burk diagram, human thrombin; format: biochemical; conditions: ionic strength 0.15, pH 8.4, 37° C; for Km: tris-imidazole buffer, graphically from Lineweaver-Burk diagram; for vmax: value marked NIH
Procedure: as §1, §2
Km and vmax were determined for the enzymes by means of the LineweaverBurk equation (the Lineweaver-Burk diagram is shown in FIG. 7 of the drawings attached to the specification). […] According to the same principle Km and vmax were determined for the other enzymes. All determinations were carried out in trisimidazole buffer at an ionic strength of 0.15 and a pH of 8.4 at 37° C.

[5] = target: batroxobin (thrombin-like enzyme from venom of Bothrops moojeni) (Bothrops atrox, UniProt P04971); format: biochemical; conditions: pH 8.4
Chain of batroxobin (thrombin-like enzyme from venom of Bothrops moojeni) (P04971 25-255 limits assumed): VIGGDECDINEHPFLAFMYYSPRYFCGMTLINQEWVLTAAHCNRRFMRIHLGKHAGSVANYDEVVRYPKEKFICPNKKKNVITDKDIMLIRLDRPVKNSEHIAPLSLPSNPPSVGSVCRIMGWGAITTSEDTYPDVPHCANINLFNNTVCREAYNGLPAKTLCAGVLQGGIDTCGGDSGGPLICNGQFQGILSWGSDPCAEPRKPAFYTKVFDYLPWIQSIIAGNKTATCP

[6] = target: human thrombin coagulase (Homo sapiens, UniProt P00734); test: Enzymatic release of p-nitroaniline from substrate by human thrombin coagulase (staphylo-thrombin); format: biochemical; conditions: substrate concentration 10^-4 M; pH 8.4, ionic strength 0.15, 37° C
[7] = target: T4, human ecarin-thrombin (Homo sapiens, UniProt P00734); test: Enzymatic release of p-nitroaniline from substrate by human ecarin-thrombin; format: biochemical; conditions: substrate concentration 10^-4 M; pH 8.4, ionic strength 0.15, 37° C
T4 construct: 0.28 NIH/ml of human ecarin-thrombin

[8] = Solubility in water; format: physicochemical; conditions: for solubility: water
[9] = substrate: N=C(N)NCCC[C@H](NC(=O)[C@@H]1CCCN1C(=O)CNC(=O)OCc1ccccc1)C(=O)Nc1ccc([N+](=O)[O-])cc1; test: Km and vmax from Lineweaver-Burk diagram, human plasmin; format: biochemical; conditions: other: human plasmin, tris-imidazole buffer, ionic strength 0.15, pH 8.4, 37° C
Procedure: as §1, §2, §3

[10] = substrate: Cc1ccc(S(=O)(=O)NCC(=O)N2CCC[C@H]2C(=O)N[C@@H](CCCNC(=N)N)C(=O)Nc2ccc([N+](=O)[O-])cc2)cc1; test: as above; format: biochemical; conditions: other: human plasmin, tris-imidazole buffer, ionic strength 0.15, pH 8.4, 37° C
Procedure: as §1, §2, §3

| Molecule | susceptibility to human thrombin compared with N^α -Bz-Phe-Val-Arg-pNA.HCl [1] | vmax [2] [µmol/L] | vmax [3] [µmol/L] | Km [4] [µM] | vmax [4] [µmol/L] | Quantity of p-nitroaniline enzymatically split off from the substrate in 1 minute by the quantity of batroxobin corresponding to 1 NIH [5] [nmol] | Quantity of p-nitroaniline enzymatically split off from the substrate in 1 minute by the quantity of human thrombin coagulase corresponding to 1 NIH [6] [nmol] | Quantity of p-nitroaniline enzymatically split off from the substrate in 1 minute by the quantity of human ecarin-thrombin corresponding to 1 NIH [7] [nmol] | solubility [8] [µg/mL] | also measured |
| --- | --- | --- | --- | --- | --- | --- | --- | --- | --- | --- |
| N=C(N)NCCC[C@H](NC(=O)[C@@H]1CCCN1C(=O)CNS(=O)(=O)c1ccccc1)C(=O)Nc1ccc([N+](=O)[O-])cc1 [Substrate VIII, n^α -benzenesulfonyl-Gly-Pro-Arg-pNA.NCl] | much higher | – | – | – | – | – | – | – | – | – |
| CC(C)COC(=O)NCC(=O)N1CCC[C@H]1C(=O)N[C@@H](CCCNC(=N)N)C(=O)Nc1ccc([N+](=O)[O-])cc1 [Substrate XI, n^α -isobutyloxycarbonyl-Gly-Pro-Arg-p-Na.HCl] | much higher | – | – | – | – | – | – | – | – | – |
| Cc1ccc(S(=O)(=O)NCC(=O)N2CCC[C@H]2C(=O)N[C@@H](CCCNC(=N)N)C(=O)Nc2ccc([N+](=O)[O-])cc2)cc1 [Substrate VII, n^α -tos-Gly-Pro-Arg-pNA.HCl] (Tos-Gly-Pro-Arg-pNA) | much higher | 0.618 | 0.0297 | 17 | 0.0757 | – | – | – | – | – |
| N=C(N)NCCC[C@H](NC(=O)[C@@H]1CCCN1C(=O)CNC(=O)OCc1ccccc1)C(=O)Nc1ccc([N+](=O)[O-])cc1 [Substrate I, N^α -Cbo-Gly-Pro-Arg-pNA.HCl] (Cbz-Gly-Pro-Arg-pNA) | much higher | 0.673 | 0.0427 | 57.1 | 0.0534 | 15.81 | 575 | 246.4 | > 4000 | solubility in water relative to Bz-Phe-Val-Arg-pNA.HCl ([8]; ratio to prior art thrombin substrate): 4 times |
| CC(C)[C@H](NC(=O)[C@H](Cc1ccccc1)NC(=O)c1ccccc1)C(=O)N[C@@H](CCCNC(=N)N)C(=O)Nc1ccc([N+](=O)[O-])cc1 [N^α -Bz-Phe-Val-Arg-pNA . HCl, N^α -Bz-Phe-Val-Arg-pNA.HCl, reference compound] (Bz-Phe-Val-Arg-pNA) | – | – | – | – | – | 3.26 | 102 | 30.7 | ~1000 | – |
| human plasmin (Homo sapiens) (protein, 0.4 CU/ml of human plasmin) chain 1: VVGGCVAHPHSWPWQVSLRTRFGMHFCGGTLISPEWVLTAAHCLEKSPRPSSYKVILGAHQEVNLEPHVQEIEVSRLFLEPTRKDIALLKLSSPAVITDKVIPACLPSPNYVVADRTECFITGWGETQGTFGAGLLKEAQLPVIENKVCNRYEFLNGRVQSTELCAGHLAGGTDSCQGDSGGPLVCFEKDKYILQGVTSWGLGCARPNKPGVYVRVSRFVTWIEGVMRNN chain 2: KVYLSECKTGNGKNYRGTMSKTKNGITCQKWSSTSPHRPRFSPATHPSEGLEENYCRNPDNDPQGPWCYTTDPEKRYDYCDILECEEECMHCSGENYDGKISKTMSGLECQAWDSQSPHAHGYIPSKFPNKNLKKNYCRNPDRELRPWCFTTDPNKRWELCDIPRCTTPPPSSGPTYQCLKGTGENYRGNVAVTVSGHTCQHWSAQTPHTHNRTPENFPCKNLDENYCRNPDGKRAPWCHTTNSQVRWEYCKIPSCDSSPVSTEQLAPTAPPELTPVVQDCYHGDGQSYRGTSSTTTTGKKCQSWSSMTPHRHQKTPENYPNAGLTMNYCRNPDADKGPWCFTTDPSVRWEYCNLKKCSGTEASVVAPPPVVLLPDVETPSEEDCMFGNGKGYRGKRATTVTGTPCQDWAAQEPHRHSIFTPETNPRAGLEKNYCRNPDGDVGGPWCYTTNPRKLYDYCDVPQCAAPSFDCGKPQVEPKKCPGR | – | – | – | – | – | – | – | – | – | Km [9]: 357 µM; Km [10]: 323 µM |

Source: US4070245A, “Substrate for the quantitative determination of proteolytic enzymes” (Pentapharm A.G., priority 1975, dated 1978)
